Experimental data reported in patent US5391540A, “Substituted pyridine compounds” (Rohm and Haas Company, priority 1993, dated 1995).

Tests used:
Experiment in all cases: Pre-emergent herbicidal activity (Table A)
Type in all cases: in vivo
[1] = test system: Barnyardgrass; details: Echinochloa crus-galli, pre-emergence, Bygr, 11.2 kg/ha, 10-14 days, read-out: herbicidal rating (% inhibition)
Summary of the method: (§1)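 Seeds or perennial propagules set on compacted topsoil, then covered with soil mixed with a known amount of test compound applied in acetone or water carrier. Ratings assigned on a scale based on percent inhibition of each species.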

[2] = test system: Canada thistle; details: Cirsium arvense, pre-emergence, Cath, 11.2 kg/ha, 10-14 days, read-out: herbicidal rating (% inhibition)
Summary of the method: as §1

[3] = test system: Cocklebur; details: Xanthium strumarium, pre-emergence, Cobu, 11.2 kg/ha, 10-14 days, read-out: herbicidal rating (% inhibition)
Summary of the method: as §1

[4] = test system: Common Lambsquarters; details: Chenopodium album, pre-emergence, Colq, 11.2 kg/ha, 10-14 days, read-out: herbicidal rating (% inhibition)
Summary of the method: as §1

[5] = test system: Downy Brome; details: Bromus tectorum, pre-emergence, Dobr, 11.2 kg/ha, 10-14 days, read-out: herbicidal rating (% inhibition)
Summary of the method: as §1

[6] = test system: Morningglory; details: Ipomoea, pre-emergence, Mogl, 11.2 kg/ha, 10-14 days, read-out: herbicidal rating (% inhibition)
Summary of the method: as §1

[7] = test system: Pennsylvania Smartweed; details: pre-emergence, Pesw, 11.2 kg/ha, 10-14 days, read-out: herbicidal rating (% inhibition)
Summary of the method: as §1

[8] = test system: Quackgrass; details: pre-emergence, Rhqg, 11.2 kg/ha, 10-14 days, read-out: herbicidal rating (% inhibition)
Summary of the method: as §1

[9] = test system: Rhizome Johnsongrass; details: Sorghum halepense, pre-emergence, Rhjg, 11.2 kg/ha, 10-14 days, read-out: herbicidal rating (% inhibition)
Summary of the method: as §1

[10] = test system: Velvetleaf; details: Abutilon theophrasti, pre-emergence, Vele, 11.2 kg/ha, 10-14 days, read-out: herbicidal rating (% inhibition)
Summary of the method: as §1

[11] = test system: Yellow Nutsedge; details: Cyperus, pre-emergence, Yens, 11.2 kg/ha, 10-14 days, read-out: herbicidal rating (% inhibition)
Summary of the method: as §1

[12] = test system: Annual Bluegrass; details: pre-emergence, Anbg, 11.2 kg/ha, 10-14 days, read-out: herbicidal rating (% inhibition)
Experimental: (§2) Tables A and B summarize results of tests conducted to determine the pre-emergent herbicidal activity of the compounds of this invention. The herbicidal ratings used in Tables A and B were assigned according to a scale based on the percent inhibition of each plant species. The herbicide rating symbols in Tables A and B are defined as follows: […]
(§3) One set of pre-emergent tests was conducted as follows:
(§4) Topsoil was placed in a pan and compacted to a depth of 0.95 to 1.27 cm. from the top of the pan. A predetermined number of seeds of each of several monocotyledonous and dicotyledonous annual plant species and/or vegetative propagules of various perennial plant species were placed on top of the soil. The soil required to level fill a pan after seeding or adding vegetative propagules was weighed into another pan. A known amount of the test compound dissolved or suspended in an organic solvent or water and applied in acetone or water as a carrier was thoroughly mixed with this cover soil, and the herbicide/soil mixture was used as a cover layer for the previously prepared pan. In Table A below the amounts of active ingredient were all equivalent to an application rate of 11.2 kilograms/hectare (kg/ha). After treatment, the pans were moved to a greenhouse bench where they were watered as needed to give adequate moisture for germination and growth.
(§5) Approximately 10-14 days (usually 11 days) after planting and treating, the plants were observed and the results recorded.
(§6) The plant species usually regarded as weeds which were utilized in one set of pre-emergent activity tests, the data for which are shown in Table A, are identified by letter headings printed diagonally above the columns according to the following legend: […]

[13] = test system: Indian Mustard; details: Brassica juncea, pre-emergence, Inmu, 11.2 kg/ha, 10-14 days, read-out: herbicidal rating (% inhibition)
Experimental: as §2, §3, §4, §5, §6

[14] = test system: Seedling Johnsongrass; details: Sorghum halepense, pre-emergence, Sejg, 11.2 kg/ha, 10-14 days, read-out: herbicidal rating (% inhibition)
Experimental: as §2, §3, §4, §5, §6

[15] = test system: Wild Buckwheat; details: Fallopia convolvulus, pre-emergence, Wibw, 11.2 kg/ha, 10-14 days, read-out: herbicidal rating (% inhibition)
Experimental: as §2, §3, §4, §5, §6

Row | Structure (SMILES) | inhibition at 11200 g/ha [1] [%] | inhibition at 11200 g/ha [2] [%] | inhibition at 11200 g/ha [3] [%] | inhibition at 11200 g/ha [4] [%] | inhibition at 11200 g/ha [5] [%] | inhibition at 11200 g/ha [6] [%] | inhibition at 11200 g/ha [7] [%] | inhibition at 11200 g/ha [8] [%] | inhibition at 11200 g/ha [9] [%] | inhibition at 11200 g/ha [10] [%] | inhibition at 11200 g/ha [11] [%] | inhibition at 11200 g/ha [12] [%] | inhibition at 11200 g/ha [13] [%] | inhibition at 11200 g/ha [14] [%] | inhibition at 11200 g/ha [15] [%]
1 | COC=Nc1c(C(F)(F)F)nc(OC)c(C(=O)OC)c1CC(C)C [Compound 76, 3-pyridinecarboxylic acid, 2-methoxy-5-[(methoxymethylene)amino]-4-(2-methylpropyl)-6-(trifluoromethyl)-, methyl ester] | 75 to 100 | 75 to 100 | 0 to 24 | 75 to 100 | 75 to 100 | 75 to 100 | 75 to 100 | 75 to 100 | 50 to 74 | 75 to 100 | 50 to 74 |  |  |  | 
2 | CCSC=Nc1c(C(F)(F)F)nc(OC)c(C(=O)OC)c1CC(C)C [Compound 78, 3-pyridinecarboxylic acid, 5-[[(ethylthio)methylene]amino]-2-methoxy-4-(2-methylpropyl)-6-(trifluoromethyl)-, methyl ester] | 75 to 100 | 75 to 100 | 0 to 24 | 75 to 100 | 75 to 100 | 75 to 100 | 75 to 100 | 50 to 74 | 0 to 24 | 75 to 100 | 0 to 24 |  |  |  | 
3 | C#CCOc1nc(C(F)(F)F)c(C(=O)OC)c(CC(C)C)c1C(=O)OC [Compound 83, 3,5-pyridinedicarboxylic acid, 4-(2-methylpropyl)-2-(2-propynyloxy)-6-(trifluoromethyl)-, dimethyl ester] | 75 to 100 | 25 to 49 | 0 to 24 | 75 to 100 | 75 to 100 | 75 to 100 | 75 to 100 | 75 to 100 | 25 to 49 | 75 to 100 | 0 to 24 |  |  |  | 
4 | COC(=O)c1c(OC)nc(C(F)(F)F)c(C(=O)OC)c1C [Compound 86, 3,5-pyridinedicarboxylic acid, 2-methoxy-4-methy1-6-(trifluoromethyl)-, dimethyl ester] | 75 to 100 | 0 to 24 | 0 to 24 | 75 to 100 | 75 to 100 | 75 to 100 | 50 to 74 | 75 to 100 | 75 to 100 | 50 to 74 | 0 to 24 |  |  |  | 
5 | COC(=O)c1c(OC)nc(C(F)(F)F)c(C(=O)OC)c1CSC [Compound 89, 3,5-pyridinedicarboxylic acid, 2-methoxy-4-[(methylthio)methyl]-6-(trifluoromethyl)-, dimethyl ester] | 75 to 100 | 75 to 100 | 25 to 49 | 75 to 100 | 25 to 49 | 75 to 100 | 75 to 100 | 25 to 49 | 0 to 24 | 75 to 100 | 0 to 24 |  |  |  | 
6 | C=C1CC(c2c(C(F)(F)F)nc(OC)c(C(=O)OC)c2CC(C)C)OC1=O (centres unmarked) [Compound 90, 3-pyridinecarboxylic acid, 5-(tetrahydro-4-methylene-5-oxo-2-furanyl)-2-methoxy-4-(2-methylpropyl)-6-(trifluoromethyl)-, methyl ester] | 50 to 74 |  | 0 to 24 |  | 50 to 74 | 0 to 24 |  |  |  | 0 to 24 | 0 to 24 | 75 to 100 | 0 to 24 | 25 to 49 | 0 to 24
